This passage reports cleaved bond, not cleaved and fragment found results from publication PMC7793531 (International Journal of Molecular Sciences, 2020).

Entries after “also recorded” stand apart in the source; their conditions may differ. Starred links: 1 amine or outer side, 2 acyl side, 3 side chain; linkers in the order of their positions; H or OH if unused. Non-standard residues stand in square brackets, D forms with d. Groups on a side chain read outwards from the residue. ξ: configuration not given here. *: point of attachment. Oic(3aξ,7aξ) = O=C(O)[C@@H]1CC2CCCCC2N1; hArg = N=C(N)NCCCC[C@H](N)C(=O)O; X1 = N=C(N)NCCCC[C@H](N)CN*; Dab = NCC[C@H](N)C(=O)O; CO = O=C([*:1])[*:2]

The nature of the data set: Human blood serum. The following applies: 37 °C, up to 96 h.
As to H2N-DapU(ArgU)-Dab-Oic-Arg-OH, the cleaved bond result was “OicL3-ArgL4” and the not cleaved entry was “urea bonds remained intact within the monitored time of the experiment”.
As to H2N-LysU(gDab)-Dab-Oic-Arg-OH, the cleaved bond result is given as “gDabL1'-Lys^UL1; also recorded: OicL3-ArgL4”, the fragment found result is given as “C25H49N10O5+ (RT 5.43 min)” and the not cleaved result is given as “urea bonds remained intact within the monitored time of the experiment”.
In the case of “H-Dab(hArg^U)Dab-Oic-Arg-OH (H-[Dab]([CO-X1])[Dab][Oic(3aξ,7aξ)]R-OH; SMILES N=C(N)NCCCC[C@H](N)CNC(=O)NCC[C@H](N)C(=O)N[C@@H](CCN)C(=O)N1C2CCCCC2C[C@H]1C(=O)N[C@@H](CCCNC(=N)N)C(=O)O)”, the cleaved bond entry is “OicL3-ArgL4; also recorded: DabL1-DabL2”, the fragment found entry is given as “C25H49N10O5+ (RT 5.36/5.72 min); also recorded: C25H46N10O4+ (RT 6.44/6.64 min); also recorded: C19H36N7O4+ (RT 3.53 min); also recorded: C12H27N7O3+ (RT 1.21 min)” and the not cleaved result is “urea bonds remained intact within the monitored time of the experiment”.
In the case of “Lys(hArg)-Dab-Oic-Arg (H-K(hArg)[Dab][Oic(3aξ,7aξ)]R-OH)”, the cleaved bond entry is “hArgL1'-LysL1, major; also recorded: LysL1-DabL2; also recorded: OicL3-ArgL4” and the fragment found result was “C25H48N9O5+ (RT 2.87 min); also recorded: C19H36N7O4+ (RT 3.54 min)”.
